Experimental findings from patent publication US9675627B2, “Dosing regimens for treating and/or preventing cerebral amyloidoses” (Amicus Therapeutics, Inc., priority 2014, dated 2017) are described below.

Series [1] has as its system ganglioside-bound Aβ (GAβ). The series can be described thus: GAβ immunohistochemistry (clone 4396C). The series is classed as in vivo, Dutch APP^E693Q transgenic mice. The following applies: 100 mg/kg, 3 months. Here is the method:
(§1) The generation and characterization of Dutch APPE693Q mice transgenic mice is described in Gandy, S., et al. Days to criterion as an indicator of toxicity associated with human Alzheimer amyloid-beta oligomers. Annals of neurology 68, 220-230 (2010). 3-month-old male Dutch APP^E693Q mice transgenic mice were orally gavaged 5 days/week with either vehicle (water) (n=15) or 3, 10, 30 or 100 mg/kg AdDNJ for 3 months (n=13). All animal studies were approved and conducted in accordance with the Institutional Animal Care and Usage Committee. Mice were kept in a pathogen-free environment, on a 12-hour light/dark cycle and given ad libitum access to food and water. At 6 month of age treatment groups, and a 3-month-old untreated baseline group (n=15), were cognitively assessed in the NOR, EPM and FC tests. 48 hours following the final dose mice were perfused with ice-cold 1×PBS. The brain was removed and dissected into two hemispheres. One half was snap-frozen on dry ice and stored at −80° C. for biochemistry; the other half was post-fixed in 4% paraformaldehyde then sagittally sectioned on a vibratome into 30 μm sections and stored at 4° C. in storage buffer until histological analyses.
Aβ was assessed via free-floating immunohistochemistry using mAb 6E10 (1:1000, Covance) as previously described20. GAβ was assessed via free-floating immunohistochemistry using mouse anti-GAβ, clone 4396C (1:100), a gift from Dr. Katsuhiko Yanagisawa as previously described19. Images were captured on an Olympus BX61 upright microscope with an attached Olympus DP71 camera. Integrated density of GAβ staining was measured using Image J (National Institute of Health, Bethesda, Md.).

For another series, the system named is SH-SY5Y cells. The series can be described thus: Cell viability, tetrazolium-formazan conversion. Format: cell-based, human. The following applies: concentrations as high as 1 mM, up to 120 hours. Here is the method:
Viability of human fibroblast (CRL2076) and human neuroblastoma (SH-SY5Y) cells was tested after prolonged exposure to varying concentrations of AdDNJ. In a 96-well plate, fibroblasts were incubated in complete media containing increasing concentrations of AdDNJ up to 1 mM for either 72 or 120 hours at 37° C. in a humidified 8% CO2 incubator. Living cells were quantified using a tetrazoliuim-formazan conversion method according to the manufacturer's instructions (Promega Non-Radioactive 96-well Titer assay, TB112). SH-SY5Y cells were tested in the same manner as fibroblasts but plated in collagen-coated plates (Nunc #152036). After 24 hour, 48 hour and 120 hour exposure to AdDNJ, living SH-SY5Y cells were quantified as described above. All dosing concentrations were done in triplicate.

For a further series, the target named is T1, α-galactosidase (α-Gal) (Homo sapiens, UniProt P06280).
T1 construct: wild-type fibroblast (CRL2076) pellets (˜2.5e6 cells/pellet) were lysed; host or cells: wild-type fibroblasts CRL2076, lysate
T1 sequence (P06280 32-429): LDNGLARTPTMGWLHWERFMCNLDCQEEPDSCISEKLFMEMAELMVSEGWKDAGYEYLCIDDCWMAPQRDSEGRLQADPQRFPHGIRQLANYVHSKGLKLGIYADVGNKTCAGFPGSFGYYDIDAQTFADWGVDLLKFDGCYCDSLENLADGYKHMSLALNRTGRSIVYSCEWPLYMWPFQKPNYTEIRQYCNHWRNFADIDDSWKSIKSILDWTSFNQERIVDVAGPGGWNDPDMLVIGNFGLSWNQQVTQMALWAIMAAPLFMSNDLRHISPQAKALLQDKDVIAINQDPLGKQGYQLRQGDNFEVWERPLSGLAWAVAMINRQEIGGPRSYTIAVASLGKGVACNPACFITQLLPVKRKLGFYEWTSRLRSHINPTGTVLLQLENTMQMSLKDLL
The series can be described thus: Selectivity: alpha-galactosidase activity in fibroblast lysate. Format: biochemical. The following applies: 10 μM, the highest concentration tested. An excerpt:
(§2) Enzymatic activity measurements were done in duplicate.

The next series deals with β-hex. Briefly: beta-hexosaminidase enhancement assay in fibroblasts. The following applies: healthy human skin fibroblasts, 5 days, 95, 390 or 780 nM, dose-dependent. Format: cell-based.
From the text: as §2

For a further series, the system named is Aβ. The series can be described thus: Aβ assay (ELISA of monomeric Aβ, dot blot of oligomers) in brain. Format: in vivo, Dutch APP^E693Q transgenic mice. To be noted: 3-month treatment, any dose tested. Here is the method:
as §1
Right hemibrains were processed via differential detergent solubilizationin accordance with Kawarabayashi, T., et al. Age-dependent changes in brain, CSF, and plasma amyloid (beta) protein in the Tg2576 transgenic mouse model of Alzheimer's disease. J Neurosci 21, 372-381 (2001). For analysis of native oligomeric Aβ protein structure, 2-4 μL native protein samples from TBS-soluble were spotted onto activated/pre-wetted PVDF membrane (0.22 μm; Millipore) and allowed to dry. Following protein spotting, membranes were blocked for 1 h at room temperature in 5% w/v non-fat milk (Santa Cruz) in TBS containing 0.1% v/v Tween-20 (Fisher Scientific; TBS-T). Membranes were then incubated in the indicated primary antibody (in 5% milk/TBS-T) overnight at 4 C, washed 4× in TBS-T, incubated in species-specific HRP-conjugated secondary antibody (in 5% milk/TBS-T) for 1 h at room temperature, and then washed 4× in TBS-T. Membranes were subsequently developed with ECL Western blotting substrate (Pierce) using the Fujifilm LAS-3000 developer. Membranes were then washed 1× in TBS-T and stripped in low pH stripping buffer [25 mM Glycine HCl, pH 2.0 and 1% w/v SDS] with vigorous shaking to remove primary and secondary antibody, washed 3× in TBS-T, and blocked for 1 h (in 5% milk/TBS-T) at room temperature before probing with the next primary antibody. Integrated density of immunoreactive spots was measured using MultiGauge Software (FujiFilm) and normalized to % control (vehicle). Generation, purification, and characterization of rabbit pAβ A11 (anti-prefibrillar oligomers, 0.5 μg/ml), rabbit pAβ OC (anti-fibrillar oligomers and fibrils; 0.25 μg/ml) and mouse mAβ Nu-4 (anti-oligomers; 1 μg/ml) have been described previously (Tomic, J. L., Pensalfini, A., Head, E. & Glabe, C. G. Soluble fibrillar oligomer levels are elevated in Alzheimer's disease brain and correlate with cognitive dysfunction. Neurobiology of disease 35, 352-358 (2009); Lambert, M. P., et al. Monoclonal antibodies that target pathological assemblies of Abeta. Journal of neurochemistry 100, 23-35 (2007)). […] To quantify monomeric Aβ levels, human/rat Aβ 1-40/1-42 ELISA kits (Wako) were used according to the manufacturer's instructions. […]

Turning to `CC(=O)NC1CNC(CO)[C@@H](O)C1O` (stereo partly shown) [AdDNJ, 2-acetamido-1,2-dideoxynojirimycin], in series [1], the “GAβ immunoreactivity, CA1 region of the hippocampus” value is reported as “did not reach significance”; the “GAβ immunoreactivity, lateral entorhinal cortex” value is listed as “trend toward reduction”; the “GAβ immunoreactivity, perirhinal cortex” value is “striking quantitative reduction”; the “GAβ immunoreactivity, subiculum” value is “striking quantitative reduction”. In series [1], the “GAβ immunoreactivity, visual cortex” value was “did not reach significance”. Also, the “effect on cell viability” value with SH-SY5Y cells is “little or no effect on cell viability”. Also, the “inhibition of α-galactosidase (α-Gal)” value against α-galactosidase (α-Gal) is recorded as “did not inhibit”. In the series on β-hex, the “increase in β-hex levels” value is “up to 3 fold”. Moreover, in the series on Aβ, the Aβ40 level entry is “no change”, the Aβ42/40 ratio entry was “no change”, the Aβ42 level result is “no change” and the Aβ oligomer levels result is recorded as “no change”. Also, the “prefibrillar Aβ” value with Aβ is “no change”.
